# In patent US20180303809A1, “TREATMENT OF BURN PAIN BY TRPV1 MODULATORS” (Purdue Pharma L.P., priority 2013, published 2018):
# Where “and” joins values, the source holds several entries; their conditions need not be identical. Identical values can stand only once.
# Key:
# Format in all cases: in vivo, rat
# male Sprague-Dawley rats [1] = assay: Paw pressure assay, mechanical hyperalgesia (PWT) in thermal burn pain model; settings: rat burn injury 55° C. 24 s
# Procedure: (§1) Test Animals: Each experiment used male Sprague-Dawley rats weighing between 190-260 g at the time of thermal burn injury. The rats were housed two per cage, and were allowed to acclimate to their environment for at least six days before testing began. The rats had free access to food and water at all times, except during testing and prior to oral (PO) administration of a test compound, when food was removed about 16 hours before dosing. The rats were divided into treatment groups, and one of the following compounds was administered to each group at the dose and by the route of administration indicated in Tables 5.2A to 5.2C, 5.3A and 5.3B, and 5.4A and 5.4B: ketorolac (Sigma-Aldrich, St. Louis, Mo.), AMG 517 (selective TRPV1 antagonist described in Em. Doherty et al., “Novel vanilloid receptor-1 antagonists:2. Structure-activity relationships of 4-oxopyrimidines leading to the selection of a clinical candidate,” J Med Chem 50:3515-3527 (2007).) (Purdue Pharma L. P., Cranbury, N.J.), indomethacin (Alexis Biochemicals, Farmingdale, N.Y.), gabapentin (Bosche Scientific, New Brunswick, N.J.), or (S)-3-chloro-5-(1,2-dihydroxyethyl)-N-(5-(trifluoromethyl)pyridin-2-yl)-5′,6′-dihydro-[2,4′-bipyridine]-1′(2′H)-carboxamide (Compound 1). The control groups were administered the vehicle for the compound of formula (I). The volume of administration for PO treatment was 5 ml/kg, and was the same for all treatment groups. Volume of administration for intraperitoneal (i.p.) drug administration was 2 ml/kg.
# (§2) To assess the actions of a compound of formula (I) for the treatment or prevention of burn pain, a model of thermal burn pain was used. A thermal burn injury was induced under isofluorane/O2 inhalation anesthesia. To assess mechanical hyperalgesia and weight bearing, a thermal injury was produced by immersing the left hind paw into water maintained at 55° C. for 24 seconds. The left hind paw of non-injured control animals was immersed in 22° C. water for 24 seconds. To assess thermal hyperalgesia, a thermal injury was produced by immersing the left hindpaw into water maintained at 50° C. for 48 seconds; the left hind-paw of non-injured control animals was immersed in 22° C. water for 48 seconds. The animals were assessed for response to noxious mechanical stimuli by determining PWT for mechanical hyperalgesia, weight bearing difference between the injured or non-injured side, or response to noxious thermal stimuli by determining PWL for thermal hyperalgesia, all as described below, prior to drug administration (baseline), then again at 1, 3 and 5 hours after induction of burn injury.
# The paw pressure assay was used to assess mechanical hyperalgesia. For this assay, hind paw withdrawal thresholds (PWT) to a noxious mechanical stimulus were determined using an analgesimeter (Model 7200, commercially available from Ugo Basile of Italy) as described in C. Stein, “Unilateral Inflammation of the Hindpaw in Rats as a Model of Prolonged Noxious Stimulation: Alterations in Behavior and Nociceptive Thresholds,” Pharmacol. Biochem. and Behavior 31:451-455 (1988). The rat's paw was placed on a small platform, and weight was applied in a graded manner up to a maximum of 250 grams. The endpoint was taken as the weight at which the paw was completely withdrawn. PWT was determined once for each rat at each time point, wherein the affected (ipsilateral; same side as the injury) rear paw was tested. […] All drug treatment groups were compared to the vehicle control group (i.e. injured, administered only the vehicle).
# male Sprague-Dawley rats [2] = assay: Hind limb weight bearing (incapacitance meter, % WL) in thermal burn pain model; settings: rat burn injury 55° C. 24 s
# Procedure: as §1, §2
# A commercially available incapacitance meter was used to determine the weight distribution on the two hind paws of the animal (Linton Incapacitance Tester (Linton Instrumentation, Norfolk, UK)). The weight bearing difference (WBD) between the injured and non-injured hindpaw was measured. The animal was placed in the testing chamber that allows the animal to stand normally, distributing its body weight on the hind limbs for the test. Each hind paw was positioned on a separate pressure sensitive pad, which independently measures the pressure applied by each limb. The device continuously collects data after either a force threshold has been exceeded, or the investigator depresses the start pad. Rats were allowed to acclimate when placed on the apparatus, and when they were stationary, the force exerted was then continuously monitored for 3 s. The endpoint was the amount of pressure applied to each limb over time. Three readings were taken for each rat at each time point, and the average used for data analysis. WBD was expressed as “% WL”, i.e. the percentage of weight borne on the burn-injured left hind paw, using the following formula: […]
# where WLP is the weight on the left hind paw and WRP is the weight on the right (untreated) hind paw. The 50% value of % WL corresponds to an equal weight distribution across both hind paws. […]
# male Sprague-Dawley rats [3] = assay: Plantar test, thermal hyperalgesia (PWL) in thermal burn pain model; settings: rat burn injury 50° C. 48 s, 30 mg/kg PO
# Procedure: as §1, §2
# The plantar test was used to assess thermal hyperalgesia. For this test, hind paw withdrawal latencies (PWL) to a noxious thermal stimulus were determined using a plantar test apparatus (commercially available from Ugo Basile of Italy) following the technique described by K. Hargreaves et al., “A New and Sensitive Method for Measuring Thermal Nociception in Cutaneous Hyperalgesia,” Pain 32(1):77-88 (1988). The maximum exposure time was set at 32 seconds to avoid tissue damage and any directed paw withdrawal from the heat source is taken as the end point. Three latencies were determined at each time point and averaged.
# [4] = 3 mg/kg IP, 1 h after administration
# [5] = 3 mg/kg IP, 3 h after administration
# [6] = 3 mg/kg IP, 5 h after administration
# [7] = 10 mg/kg IP, 1 h after administration
# [8] = 10 mg/kg IP, 3 h after administration
# [9] = 10 mg/kg IP, 5 h after administration
# [10] = 30 mg/kg IP, 1 h after administration
# [11] = 30 mg/kg IP, 3 h after administration
# [12] = 30 mg/kg IP, 5 h after administration
# [13] = 100 mg/kg IP in 0.9% NaCl, 1 h after administration, 100 mg/kg
# [14] = 100 mg/kg IP in 0.9% NaCl, 5 h after administration, 100 mg/kg
# [15] = 30 mg/kg PO, 5 h after administration
smiles,measurement,setting,value
"NCC1(CC(=O)O)CCCCC1 [Gabapentin, gabapentin]",% Decrease from Baseline (mean ± S.E.M.) of Paw Withdrawal Threshold,male Sprague-Dawley rats [1]; [4],61 ± 2.1%
same,Paw Withdrawal Threshold (g) (mean ± S.E.M.),male Sprague-Dawley rats [1]; [4],90 ± 4.1 g
same,% Decrease from Baseline (mean ± S.E.M.) of Paw Withdrawal Threshold,male Sprague-Dawley rats [1]; [5],55 ± 3.7%
same,Paw Withdrawal Threshold (g) (mean ± S.E.M.),male Sprague-Dawley rats [1]; [5],102 ± 7.4 g
same,% Decrease from Baseline (mean ± S.E.M.) of Paw Withdrawal Threshold,male Sprague-Dawley rats [1]; [6],65 ± 3.0%
same,Paw Withdrawal Threshold (g) (mean ± S.E.M.),male Sprague-Dawley rats [1]; [6],81 ± 6.5 g
same,Paw Withdrawal Threshold (g) (mean ± S.E.M.),"male Sprague-Dawley rats [1]; 3 mg/kg IP, baseline (prior to drug administration)",232 ± 10.0 g
same,% Decrease from Baseline (mean ± S.E.M.) of Paw Withdrawal Threshold,male Sprague-Dawley rats [1]; [7],47 ± 3.9%
same,Paw Withdrawal Threshold (g) (mean ± S.E.M.),male Sprague-Dawley rats [1]; [7],122 ± 9.1 g
same,% Decrease from Baseline (mean ± S.E.M.) of Paw Withdrawal Threshold,male Sprague-Dawley rats [1]; [8],43 ± 3.7%
same,Paw Withdrawal Threshold (g) (mean ± S.E.M.),male Sprague-Dawley rats [1]; [8],130 ± 8.2 g
same,% Decrease from Baseline (mean ± S.E.M.) of Paw Withdrawal Threshold,male Sprague-Dawley rats [1]; [9],57 ± 3.2%
same,Paw Withdrawal Threshold (g) (mean ± S.E.M.),male Sprague-Dawley rats [1]; [9],100 ± 8.7 g
same,Paw Withdrawal Threshold (g) (mean ± S.E.M.),"male Sprague-Dawley rats [1]; 10 mg/kg IP, baseline (prior to drug administration)",231 ± 9.7 g
same,% Decrease from Baseline (mean ± S.E.M.) of Paw Withdrawal Threshold,male Sprague-Dawley rats [1]; [10],40 ± 2.0 %
same,Paw Withdrawal Threshold (g) (mean ± S.E.M.),male Sprague-Dawley rats [1]; [10],144 ± 7.2 g
same,% Decrease from Baseline (mean ± S.E.M.) of Paw Withdrawal Threshold,male Sprague-Dawley rats [1]; [11],27 ± 5.1 %
same,Paw Withdrawal Threshold (g) (mean ± S.E.M.),male Sprague-Dawley rats [1]; [11],174 ± 14.8 g
same,% Decrease from Baseline (mean ± S.E.M.) of Paw Withdrawal Threshold,male Sprague-Dawley rats [1]; [12],56 ± 4.0^ %
same,Paw Withdrawal Threshold (g) (mean ± S.E.M.),male Sprague-Dawley rats [1]; [12],105 ± 11.2 g
same,Paw Withdrawal Threshold (g) (mean ± S.E.M.),"male Sprague-Dawley rats [1]; 30 mg/kg IP, baseline (prior to drug administration)",237 ± 7.9 g
same,% Decrease from Baseline (mean ± S.E.M.) of Paw Withdrawal Threshold,male Sprague-Dawley rats [1]; [13],37 ± 5.3 % and 23 ± 6.6 % and 41 ± 3.6 %
same,Paw Withdrawal Threshold (g) (mean ± S.E.M.),male Sprague-Dawley rats [1]; [13],152 ± 14.1 g and 180 ± 13.7 g and 145 ± 9.8 g
same,% Decrease from Baseline (mean ± S.E.M.) of Paw Withdrawal Threshold,male Sprague-Dawley rats [1]; [14],53 ± 6.0^ % and 55 ± 4.6^ % and 56 ± 2.2^ %
same,Paw Withdrawal Threshold (g) (mean ± S.E.M.),male Sprague-Dawley rats [1]; [14],112 ± 12.4^ g and 105 ± 9.5 g and 108 ± 5.8^ g
same,Paw Withdrawal Threshold (g) (mean ± S.E.M.),"male Sprague-Dawley rats [1]; 100 mg/kg IP in 0.9% NaCl, baseline (prior to drug administration), 100 mg/kg",239 ± 7.7 g and 237 ± 7.8 g and 246 ± 4.5^ g
same,"% WL (mean ± S.E.M.), percentage of weight borne on the burn-injured left hind paw","male Sprague-Dawley rats [2]; 100 mg/kg IP in NaCl, 1 h after administration",33.6 ± 3.09 %
same,"% WL (mean ± S.E.M.), percentage of weight borne on the burn-injured left hind paw","male Sprague-Dawley rats [2]; 100 mg/kg IP in NaCl, 3 h after administration",44.8 ± 2.58%
same,"% WL (mean ± S.E.M.), percentage of weight borne on the burn-injured left hind paw","male Sprague-Dawley rats [2]; 100 mg/kg IP in NaCl, 5 h after administration",44.0 ± 2.24%
same,"% WL (mean ± S.E.M.), percentage of weight borne on the burn-injured left hind paw","male Sprague-Dawley rats [2]; 100 mg/kg IP in NaCl, baseline (prior to drug administration)",51.1 ± 0.57%
"COc1ccc2c(c1)c(CC(=O)O)c(C)n2C(=O)c1ccc(Cl)cc1 [Indomethacin, indomethacin]",% Decrease from Baseline (mean ± S.E.M.) of Paw Withdrawal Threshold,"male Sprague-Dawley rats [1]; 30 mg/kg PO, 1 h after administration",51 ± 2.6 %
same,% Decrease from Baseline (mean ± S.E.M.) of Paw Withdrawal Threshold,"male Sprague-Dawley rats [1]; 30 mg/kg PO, 3 h after administration",45 ± 5.8 %
same,% Decrease from Baseline (mean ± S.E.M.) of Paw Withdrawal Threshold,male Sprague-Dawley rats [1]; [15],58 ± 3.6%
same,Paw Withdrawal Threshold (g) (mean ± S.E.M.),male Sprague-Dawley rats [1]; [15],103 ± 10.2 g
same,Paw Withdrawal Threshold (g) (mean ± S.E.M.),"male Sprague-Dawley rats [1]; 30 mg/kg PO, baseline (prior to drug administration)",240 ± 7.5 g
same,% Change from Baseline (mean ± S.E.M.) of Paw Withdrawal Latency,male Sprague-Dawley rats [3]; 1 h after administration,−41.5 ± 10.71%
same,Paw Withdrawal Latency (sec) (mean ± S.E.M.),male Sprague-Dawley rats [3]; 1 h after administration,8.3 ± 0.91 s
same,% Change from Baseline (mean ± S.E.M.) of Paw Withdrawal Latency,male Sprague-Dawley rats [3]; 3 h after administration,−26.1 ± 13.18%
same,Paw Withdrawal Latency (sec) (mean ± S.E.M.),male Sprague-Dawley rats [3]; 3 h after administration,11.2 ± 0.87 s
same,% Change from Baseline (mean ± S.E.M.) of Paw Withdrawal Latency,male Sprague-Dawley rats [3]; 5 h after administration,−25.5 ± 13.63%
same,Paw Withdrawal Latency (sec) (mean ± S.E.M.),male Sprague-Dawley rats [3]; 5 h after administration,11.4 ± 0.51 s
same,Paw Withdrawal Latency (sec) (mean ± S.E.M.),male Sprague-Dawley rats [3]; baseline (prior to drug administration),14.3 ± 1.26 s
same,"% WL (mean ± S.E.M.), percentage of weight borne on the burn-injured left hind paw","male Sprague-Dawley rats [2]; 30 mg/kg PO, 3 h after administration, 30 mg/kg",42.6 ± 2.14% and 46.8 ± 2.17%
same,"% WL (mean ± S.E.M.), percentage of weight borne on the burn-injured left hind paw","male Sprague-Dawley rats [2]; 30 mg/kg PO, 5 h after administration, 30 mg/kg",43.7 ± 2.38% and 48.2 ± 2.54%
same,"% WL (mean ± S.E.M.), percentage of weight borne on the burn-injured left hind paw","male Sprague-Dawley rats [2]; 30 mg/kg PO, baseline (prior to drug administration), 30 mg/kg",49.1 ± 0.53% and 50.4 ± 0.54%
